A short description of data set [1]: Rate of dissolution of CBD according to Ph. Eur. 2.9.3 for oral tablets. Type of data set: physicochemical. The settings on record: 1 wt. % SDS in water, pH 7, 36-41° C. As to the method: The rate of dissolution of CBD from the compressed tablets described in Example 2 was tested according to European Pharmacopeia (Ph. Eur. 2.9.3) for oral tablets. The rate of dissolution of pure CBD (20 mg) was determined using the same method.
The dissolution medium consisted of a solution of 1 wt. % SDS in water. The pH of the medium had been adjusted to 7 with diluted HCl. During the experiments, the temperature of the dissolution media was maintained between 36 and 41° C. under stirring. After dropping the tablet in the dissolution medium, samples were taken at various time intervals with a disposable syringe. The samples were filtered immediately over a syringe filter into a HPLC vial and analyzed by HPLC.

Data set [2] deals with schizophrenic patient. The note with it: cited from earlier work.
The conditions of data set [3]: A. J. Poortman, H. Huizer, Forensic Science International (1999); cited from earlier work.

Turning to `C=C(C)[C@@H]1CCC(C)=C[C@H]1c1c(O)cc(CCCCC)cc1O` [CBD, cannabidiol], the “% (w/w) of CBD dissolved” value in data set [1] (1 min) is 2.6 % (w/w); in data set [1] (4 min), 9.2 % (w/w); in data set [1] (8 min) it was 18.6 % (w/w); in data set [1] (15 min), 27.4 % (w/w); in data set [1] (30 min), 35.2 % (w/w); in data set [1] (45 min), 42.4 % (w/w). The “% (w/w) of CBD dissolved” value in data set [1] (60 min) is on record as 45.5 % (w/w). In addition, in data set [2] (patient with schizophrenia, dose doubled every 5 days, at 1280 mg/day), the symptom course entry was “trend for symptom improvement”. Further, the “clinical course during CBD treatment” value in data set [2] (schizophrenic patient, CBD dissolved in oil up to 1500 mg/day for 4 weeks) is “significant improvement”. Moreover, the “stability of the drug” value in data set [3] is listed as “unstable”.

The values above are taken from patent US10245237B2, “Compressed tablet containing cannabidiol, method for its manufacture and use of such tablet in oral treatment of psychosis or anxiety disorders” (Echo Pharmaceuticals B.V., priority 2013, dated 2019).
